Entries after “also recorded” stand apart in the source; their conditions may differ.

The test system of this test is IL6, ISG15, IFNB1, NQO1, HMOX1 (HO-1), GCLM, DDIT3 (CHOP), ATF4, XBP1 transcripts. Put plainly: Targeted host-response transcript profiling (two-step RT-qPCR) in MRC-5 cells. The note with it: n = 3. Type of test: cell-based, human. The protocol: Total RNA was isolated using the RNeasy kit (QIAGEN, Hilden, Germany) according to the manufacturer’s instructions. cDNA was synthesized with the Tetro cDNA Synthesis Kit (Meridian Bioscience, Memphis, TN, USA) following the manufacturer’s protocol. Quantitative PCR was performed using Luna Universal qPCR Master Mix, SYBR (New England Biolabs, Ipswich, MA, USA). Target genes included IL6, ISG15, IFNB1, NQO1, HMOX1 (HO-1), GCLM, DDIT3 (CHOP), ATF4, and XBP1; primer sequences are listed in Table S3. ACTB served as the internal control. Expression changes were calculated as −ΔΔCt (log2 fold change) relative to time-matched calibrators (OC43 only for infected comparisons; DMSO for uninfected). Each condition included n = 3 biological replicates. At each time point, data were analyzed independently in GraphPad Prism 10.1.2 (GraphPad Software, San Diego, CA, USA) using an ordinary two-way ANOVA with factors gene (9 levels) and treatment (2 levels). Significance marks reflect within-gene simple-effects comparisons (treatment) with Tukey’s multiple-comparisons adjustment (two-tailed, α = 0.05). Time was not included as a factor; no inferences were made across time points.

In the case of `COc1cccc(-c2oc(-c3ccc(C(F)(F)F)cc3)nc2C(=O)NCC2CC2)c1` [KB-2777, N-(cyclopropylmethyl)-5-(3-methoxyphenyl)-2-(4-(trifluoromethyl)phenyl)Oxazole-4-Carboxamide], under “OC43-infected MRC-5, OC43 + KB-2777 vs OC43 alone, time-matched”, the “host-response transcripts (−ΔΔCt) in infected cells” value was “attenuated IL6, IFNB1, ISG15, and selected UPR transcripts; also recorded: attenuated these transcriptional responses”. Moreover, the “host-response transcripts (−ΔΔCt) in uninfected cells” value (uninfected MRC-5, KB-2777 alone vs DMSO) is “changes were limited and transient”.
